Values of other authors as cited in patent US20130131091A1, “HARMFUL ORGANISM CONTROL AGENT” (priority 2010, published 2013).

Legend:
[1] = test system: Plutella xylostella L larvae
[2] = test system: larvae of Helicoverpa zea

Measured: insecticidal activity

CC(=O)OCC1(C)C(OC(C)=O)CCC2(C)C1CC(OC(C)=O)C1(C)Oc3cc(-c4cccnc4)oc(=O)c3C(O)C21 (stereo not drawn) [pyripyropene A]
insecticidal activity: Tenebrio molitor L | [1] | [2]
